Data published in ChEMBL document CHEMBL1148880, “Development of piperazine-tethered heterodimers as potent antimalarials against chloroquine-resistant P. falciparum strains. Synthesis and molecular modeling” (Bioorg Med Chem Lett, 2007).

Key:
Format in all cases: functional, organism-based
Plasmodium falciparum [1] = experiment: Antiplasmodial activity against chloroquine-resistant Plasmodium falciparum W2
Plasmodium falciparum [2] = experiment: Antiplasmodial activity against chloroquine-sensitive Plasmodium falciparum D10
Plasmodium falciparum [3] = experiment: Antiplasmodial activity against chloroquine-sensitive Plasmodium falciparum 3D7
Plasmodium falciparum [4] = experiment: Antiplasmodial activity against chloroquine-resistant Plasmodium falciparum K1

Structure (SMILES) | IC50 (Plasmodium falciparum [1]) [µM] | IC50 (Plasmodium falciparum [2]) [µM] | IC50 (Plasmodium falciparum [3]) [µM] | IC50 (Plasmodium falciparum [4]) [µM]
CCN(CC)CCCC(C)NC1CC=Nc2cc(Cl)ccc21 (stereo not drawn) | 280 | 22 | 10 | 260
Clc1ccc2/c(=N/CCCN3CCN(CCCNc4nc5ccccc5[nH]4)CC3)cc[nH]c2c1 | 535 | 407 | – | –
CS(=O)(=O)OC(c1ccc(CNCCCN2CCN(CCC/N=c3\cc[nH]c4cc(Cl)ccc34)CC2)cc1)c1cccc(Cl)c1 (stereo not drawn) | 98 | 110 | 7.8 | 447
OC(c1ccc(CNCCCN2CCN(CCC/N=c3\cc[nH]c4cc(Cl)ccc34)CC2)cc1)c1cccc(Cl)c1 (stereo not drawn) | 269 | 145 | 28 | 135
O=C(NCCCN1CCN(CCC/N=c2\cc[nH]c3cc(Cl)ccc23)CC1)C(c1cccc(Cl)c1)n1ccnc1 (stereo not drawn) | 540 | 221 | 40 | 200
O=C(c1ccc(CNCCCN2CCN(CCC/N=c3\cc[nH]c4cc(Cl)ccc34)CC2)cc1)c1cccc(Cl)c1 | 33 | 26 | 1.6 | 16
Clc1ccc2/c(=N/CCCN3CCN(CCCNCC4N=CC=N4)CC3)cc[nH]c2c1 | 1440 | 1610 | – | –
Clc1ccc2/c(=N/CCCN3CCN(CCCNCc4ccc(CN5CCCC5)cc4)CC3)cc[nH]c2c1 | 207 | 260 | – | –
Clc1cccc(C(NCCCN2CCN(CCC/N=c3\cc[nH]c4cc(Cl)ccc34)CC2)c2ccc(CN3CCCC3)cc2)c1 (stereo not drawn) | 495 | 663 | – | –
